Measurements taken from US20230130243A1, “Method of Treating Urothelial Carcinoma and Other Genitourinary Malignancies Using N-(4-(6,7-dimethoxyquinolin-4-yloxy)phenyl)-N'-(4-fluorophenyl)cyclopropane-1,1-dicarboxamide” (The United States of America, as Represented by the …, priority 2016, published 2023).

Assays:
[1] = test system: metastatic urothelial carcinoma (mUC); details: mUC patients progressed despite prior platinum-containing chemotherapy; cited from earlier work
[2] = test system: Treg (CD4+CD25hiFoxp3+) in CD4+ T-cells; experiment: Treg population in urothelial cancer patients treated with cabozantinib (FIGS. 1, 2); format: in vivo, human
Excerpt: Directly killing the tregs, and 2. Influencing treg polarization. See Apolo, A B, et al., J. Clin. Oncol. 2014; 32s:abstr 4501.
With reference to FIG. 2, it is believed that cabozantinib downregulates regulatory T cell population by acting on T cell polarization via inhibition of transcription factor Foxp3. The biologic rationale for combining cabozantinib and immune checkpoint blockade in mUC can be extrapolated from the results shown in FIGS. 2A and 2B. In FIG. 2A, patients with lower percent Treg (CD4+CD25hiFoxp3+) in CD4+ T-cells (<3.89%=median value) at baseline had better response compared with those who had higher percent Treg at baseline.

[3] = test system: metastatic urothelial carcinoma and other genitourinary malignancies; experiment: Phase I study of CaboNivo and CaboNivoIpi in patients; format: in vivo, human
Excerpt: This example provides results of a Phase I study of Cabozantinib (Cabo)+Nivolumab (Nivo) and (CaboNivo) Cabo+Nivolumab+Ipilimumab (Ipi) (CaboNivoIpi) in patients with metastatic urothelial carcinoma and other genitourinary malignancies.
The study provides results of a Phase I study of Cabozantinib+Nivolumab and Cabozantinib+Nivolumab+Ipilimumab in patients with metastatic urothelial carcinoma and other genitourinary malignancies. The purpose of the study was to determine the dose limiting toxicity (DLT) and recommended Phase II dose (RP2D) of the combination of CaboNivo and separately the combination of CaboNivolpi. In the study, DLT was defined as any event requiring a patient to discontinue study treatment. The DLT evaluation period was 4 weeks (Part 1) and 6 weeks (Part 2).
Secondary endpoints for the study included overall response rate (ORR) by RECIST v1.1; duration of response; progression free survival (PFS); and overall survival (OS). Exploratory Endpoints included the identification of immune subset biomarkers associated with PD-L1 and MET expression as well as correlation with efficacy.
Key eligibility criteria for the study included: • Histologically confirmed diagnostic of genitourinary (GU) malignancy; • Patients with metastatic GU malignancy who has disease progression on at least one standard therapy or there must be no standard treatment that prolongs survival; • A Karnofsky performance status of greater than or equal to 70 percent; and • One evaluable site of disease or bone disease by NaF PET/CT.

[4] = test system: relapsed/refractory metastatic urothelial carcinoma (mUC); details: pretreated patients with relapsed/refractory mUC; cited from earlier work
[5] = test system: peripheral blood mononuclear cells (PBMC); experiment: PBMC incubated with Cabozantinib, master regulator transcription factors of CD4+ T-cell polarization (FIGS. 1A and 1B); format: cell-based; details: PBMCs, 3-4 days, 10% FBS-RPMI, Cabozantinib 10 uM vs DMSO control; three donors
Experimental: With reference to FIGS. 1A and 1B, peripheral blood mononuclear cells (PBMC) were obtained by centrifugation from buffy coat. PBMCs were incubated for 3-4 days in a 24 well plate with 10% FBS-RPMI medium with DMSO (control) or Cabozantinib (10 uM). Representative data obtained from three different donors were shown. […] Naïve CD4+ T-cells can polarize toward four CD4+ lineages.

patients with 3 dose reductions ([3]; 2 of the 18 patients with dose reduction) [%] | patients with 2 dose reductions ([3]; 6 of the 18 patients with dose reduction) [%] | patients with 1 dose reduction ([3]; 10 of the 18 patients with dose reduction) [%] | patients with ≥1 dose reduction of cabozantinib ([3]; 18 of 42 patients) [%] | median dose reduction ([3]; number of dose reductions per patient, 18 patients) | Compound | clinical activity [1] | percent Treg among CD4+ T-cells ([2]; after treatment with Cabozantinib, FIG. 2B) | Treg population ([2]; urothelial cancer patients, FIG. 1, see Apolo et al. 2014) | clinical activity [4] | suppression of master regulator transcription factors of CD4+ T-cell polarization [5]
– | – | – | – | – | Nivolumab: IgG4 anti-PD-1 monoclonal antibody sold under the name OPDIVO | clinical activity | – | – | – | –
11 | 33 | 56 | 43 | 1 (range 1-3) | COc1cc2nccc(Oc3ccc(NC(=O)C4(C(=O)Nc5ccc(F)cc5)CC4)cc3)c2cc1OC [Cabozantinib, N-(4-(6,7-dimethoxyquinolin-4-yloxy)phenyl)-N′-(4-fluorophenyl)cyclopropane-1,1-dicarboxamide] | – | decreased significantly | decrease the Treg population | clinical activity | suppresses only Foxp3
